The source of these data is ChEMBL document CHEMBL1201862, “PubChem BioAssay data set” (2004).

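48-hour exposure; five concentrations; linearly interpolated endpoints. GI50 is the concentration that inhibits growth by half.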 The source made the active and inactive calls. Cut-off read from the data, not from the text of the source: active = GI50 up to about 1.1 µM and inactive = higher.

Some test systems named below: CAKI-1; HCC 2998; HCT-15; HL-60; HOP-62; HOP-92; Hs-578T; IGROV-1; MDA-MB-435; NCI-H23; NCI-H522; OVCAR-4; OVCAR-5; SF-295; SK-MEL-28; TK-10; UACC-257; UO-31; U-251.
What all share (experiment): NCI anticancer screen, dose series, 48 h

In the case of `C(=C\c1ccco1)/c1cccc(/C=C/c2ccco2)n1`, the GI50 in the test with CAKI-1 is > 50 µM (inactive); in the test on HCC 2998, > 50 µM (inactive); with HCT-15, > 50 µM; with HL-60 it was > 50 µM (inactive); in the test with HOP-62, > 50 µM (inactive); with HOP-92, > 50 µM (inactive). The GI50 in the test on Hs-578T, in the test on IGROV-1, in the test with MDA-MB-435, in the test with NCI-H23, in the test on NCI-H522 and with OVCAR-4 was > 50 µM (inactive) each time. For the same compound, the GI50 in the test on OVCAR-5, in the test with SF-295, with SK-MEL-28, in the test with TK-10, in the test on UACC-257 and in the test on UO-31 was > 50 µM (inactive) each time.

With `CCC(=O)OCN1C(=O)C=CC1=O`, the GI50 in the test on CAKI-1 is 5.08 µM (inactive); in the test with HCC 2998, 18.6 µM (inactive); in the test with HCT-15, 22.9 µM; in the test on HL-60, 7.19 µM (inactive); in the test with HOP-62, 17.8 µM (inactive); with HOP-92, 15.2 µM (inactive). Further, the GI50 with Hs-578T was 10.1 µM (inactive); with IGROV-1, 18.4 µM (inactive); in the test on MDA-MB-435, 15.2 µM (inactive); in the test with NCI-H23 it was 18 µM (inactive); with NCI-H522, 1.91 µM (inactive); with OVCAR-4 it was 17.6 µM (inactive). For the same compound, the GI50 in the test with OVCAR-5 was 18.2 µM (inactive); with SF-295 it was > 44.7 µM (inactive); in the test with SK-MEL-28, 18.6 µM (inactive); in the test on TK-10 it was 6.21 µM (inactive); with U-251 it was 17.6 µM (inactive); in the test with UACC-257, 9.06 µM (inactive). Further, the GI50 in the test with UO-31 was 7.91 µM (inactive).

Turning to `O=C(c1nsc(Cl)c1Cl)N1CCCCC1`, the GI50 was > 100 µM (inactive) with CAKI-1; > 100 µM (inactive) in the test with HCC 2998; > 100 µM in the test on HCT-15; > 100 µM (inactive) in the test with HL-60; > 100 µM (inactive) with HOP-62; > 100 µM (inactive) with Hs-578T. Besides, the GI50 in the test on IGROV-1, in the test on MDA-MB-435, in the test with NCI-H23, in the test with OVCAR-4, in the test with OVCAR-5 and with SF-295 was > 100 µM (inactive) throughout. The GI50 was > 100 µM (inactive) in the test with SK-MEL-28; > 100 µM (inactive) with TK-10; > 100 µM (inactive) with U-251; > 100 µM (inactive) in the test with UACC-257; 39.5 µM (inactive) in the test on UO-31.

In the case of `COC(=O)C12OCC34C(CC5C(C)C6=CC(=O)OC6=CC5(C)C3C(O)C1O)OC(=O)C(OC(C)=O)C24` (stereo not given), the GI50 in the test with CAKI-1 was 9.91 µM (inactive); in the test with HCC 2998 it was 16.1 µM (inactive); in the test on HCT-15, 15.3 µM; in the test on HL-60, 12.1 µM (inactive); in the test on HOP-62, 25.8 µM (inactive); in the test on HOP-92, 16.9 µM (inactive). Further, the GI50 was 27.8 µM (inactive) with IGROV-1; 15.1 µM (inactive) in the test on NCI-H23; 8.91 µM (inactive) in the test on NCI-H522; 18.1 µM (inactive) in the test on OVCAR-4; 23.1 µM (inactive) in the test with OVCAR-5; 23 µM (inactive) with SF-295. Further, the GI50 with SK-MEL-28 was 15.5 µM (inactive); in the test on TK-10 it was 17.4 µM (inactive); with U-251, 23.5 µM (inactive); in the test with UACC-257, 14.1 µM (inactive); in the test with UO-31, 24.4 µM (inactive).

With `CC(Cc1ccc(O)cn1)(NC(=O)c1ccccc1)C(=O)O` (stereo not given), the GI50 with CAKI-1 is > 100 µM (inactive); in the test on HCC 2998, > 100 µM (inactive); in the test with HCT-15, > 100 µM; with HL-60, > 100 µM (inactive); with HOP-62, > 100 µM (inactive); in the test on HOP-92, 74 µM (inactive). The GI50 with Hs-578T, in the test with IGROV-1, in the test on MDA-MB-435, in the test on NCI-H23, in the test with NCI-H522 and in the test with OVCAR-4 was > 100 µM (inactive) each time. Moreover, the GI50 with OVCAR-5, in the test with SF-295, in the test on SK-MEL-28, in the test on TK-10, in the test with U-251 and in the test on UACC-257 was > 100 µM (inactive) each time. Also, the GI50 in the test on UO-31 was > 100 µM (inactive).

For the compound `N#Cc1c(O)c(C=O)c(=O)n2c1[nH]c1ccccc12`, the GI50 is > 100 µM (inactive) in the test on CAKI-1; > 100 µM (inactive) in the test on HCC 2998; > 100 µM with HCT-15; > 100 µM (inactive) in the test with HOP-62; > 100 µM (inactive) in the test on HOP-92; > 100 µM (inactive) in the test with Hs-578T. Further, the GI50 with IGROV-1, in the test with MDA-MB-435, in the test on NCI-H23, in the test with NCI-H522, in the test with OVCAR-4 and with OVCAR-5 was > 100 µM (inactive) each time. In addition, the GI50 with SF-295, in the test on SK-MEL-28, in the test with TK-10, in the test on U-251, with UACC-257 and in the test on UO-31 was > 100 µM (inactive) throughout.

In the case of `COc1cccc(C=C(C#N)C#N)c1OC`, the GI50 is > 100 µM (inactive) with CAKI-1; > 100 µM (inactive) in the test on HCC 2998; > 100 µM with HCT-15; 85.9 µM (inactive) in the test with HL-60; > 100 µM (inactive) in the test on HOP-62; > 100 µM (inactive) in the test with HOP-92. Besides, the GI50 with IGROV-1, in the test on NCI-H23, with NCI-H522, in the test with OVCAR-4, in the test on OVCAR-5 and in the test with SF-295 was > 100 µM (inactive) in each case. In addition, the GI50 with SK-MEL-28, with TK-10, in the test with U-251, in the test on UACC-257 and in the test on UO-31 was > 100 µM (inactive) in each case.

On to `CC(=O)OC(/C=C/c1ccccc1)=C(OC(C)C)/C1=C(\c2ccccc2)SCCCSC1=O`, for which the GI50 in the test with CAKI-1 was > 100 µM (inactive); with HCC 2998 it was > 100 µM (inactive); in the test with HCT-15, > 100 µM; in the test on HL-60, 49.8 µM (inactive); in the test with HOP-62, > 100 µM (inactive); in the test with HOP-92, > 100 µM (inactive). Also, the GI50 in the test with Hs-578T was > 100 µM (inactive); with MDA-MB-435 it was > 100 µM (inactive); with NCI-H23, > 100 µM (inactive); with OVCAR-4, 83.4 µM (inactive); with OVCAR-5, > 100 µM (inactive); with SF-295 it was 56.8 µM (inactive). The GI50 in the test on SK-MEL-28, in the test on TK-10, in the test on U-251, with UACC-257 and in the test on UO-31 was > 100 µM (inactive) each time.

With `CN(C)Cc1[nH]c2ccccc2c1C(=O)c1ccccc1`, the GI50 is > 100 µM (inactive) with CAKI-1; 99.1 µM (inactive) in the test with HCC 2998; > 100 µM in the test with HCT-15; 86.9 µM (inactive) with HL-60; 33 µM (inactive) in the test with HOP-62; 33 µM (inactive) with HOP-92. The GI50 with IGROV-1, in the test on NCI-H23, with NCI-H522, in the test with OVCAR-4, in the test with OVCAR-5 and with SF-295 was > 100 µM (inactive) each time. Also, the GI50 with SK-MEL-28 is > 100 µM (inactive); in the test on TK-10, > 100 µM (inactive); in the test with U-251 it was > 100 µM (inactive); in the test with UACC-257, > 100 µM (inactive); with UO-31, 31.6 µM (inactive).

Take `O=[PH](O)c1cccnc1`: the GI50 was > 100 µM (inactive) in the test on CAKI-1; > 100 µM (inactive) in the test with HCC 2998; > 100 µM in the test on HCT-15; > 100 µM (inactive) with HL-60; > 100 µM (inactive) with HOP-62; > 100 µM (inactive) in the test on HOP-92. In addition, the GI50 in the test with IGROV-1, with NCI-H23, in the test on NCI-H522, in the test with OVCAR-4, in the test with OVCAR-5 and with SF-295 was > 100 µM (inactive) each time. For the same compound, the GI50 with SK-MEL-28, with TK-10, with U-251, in the test on UACC-257 and with UO-31 was > 100 µM (inactive) in each case.

On to `CC(=O)/C(=C\c1ccccc1O)C(=O)Nc1ccccc1C`, for which the GI50 in the test with CAKI-1 is 16 µM (inactive); in the test with HCC 2998 it was 15.7 µM (inactive); in the test with HCT-15 it was 14.1 µM; in the test with HL-60, 9.64 µM (inactive); with HOP-62, 20.9 µM (inactive); with HOP-92 it was 15.9 µM (inactive). Further, the GI50 in the test with IGROV-1 was 25.9 µM (inactive); in the test on NCI-H23, 17.7 µM (inactive); in the test with NCI-H522 it was > 10 µM (inactive); with OVCAR-4, 29.4 µM (inactive); in the test on OVCAR-5 it was 21.2 µM (inactive); with SF-295, 23.2 µM (inactive). The GI50 with SK-MEL-28 was 24.3 µM (inactive); in the test on TK-10 it was > 10 µM (inactive); in the test with U-251, 8.85 µM (inactive); with UACC-257 it was 31.9 µM (inactive); in the test on UO-31 it was 16 µM (inactive).

As for `O=S1(=O)CCCS(=O)(=O)C(c2ccccc2)=C1c1ccccc1`, the GI50 in the test with CAKI-1 is 76.7 µM (inactive); in the test on HCC 2998, 18.5 µM (inactive); in the test with HCT-15, 27.7 µM; in the test with HL-60, 18.6 µM (inactive); in the test with HOP-62 it was 30.3 µM (inactive); in the test on HOP-92, 28.2 µM (inactive). The GI50 was 70.5 µM (inactive) in the test with IGROV-1; 50.5 µM (inactive) in the test with NCI-H23; 27.5 µM (inactive) with NCI-H522; 23.3 µM (inactive) in the test with OVCAR-4; > 100 µM (inactive) with OVCAR-5; > 10 µM (inactive) in the test with SF-295. The GI50 with SK-MEL-28 is > 100 µM (inactive); in the test on TK-10, > 100 µM (inactive); in the test on U-251, 92.7 µM (inactive); with UACC-257, 69.7 µM (inactive); in the test with UO-31, > 100 µM (inactive).
